This note sets out measurements from US9321756B2, “Azole compounds as PIM inhibitors” (priority 2011, dated 2016).

For assay [1], the system named is Pim-1 stably transfected U2OS human osteogenic sarcoma line. Briefly: Pim cell assay U2OS (phospho-BAD normalized against total BAD), Pim-1 transfected. It counts as cell-based. The settings on record: Homo sapiens, U2OS.
For assay [2], the target named is full length recombinant Pim-1 (Homo sapiens (Human), UniProt P11309). As to the kind of experiment: Pim enzyme assay (HTRF, phosphorylation of biotinylated-BAD (S112) peptide), Pim-1. The assay is classed as biochemical. Background: Time-resolved FRET reads energy transfer from a long-lived donor to a nearby acceptor.
Sequence of full length recombinant Pim-1 (P11309 whole entry): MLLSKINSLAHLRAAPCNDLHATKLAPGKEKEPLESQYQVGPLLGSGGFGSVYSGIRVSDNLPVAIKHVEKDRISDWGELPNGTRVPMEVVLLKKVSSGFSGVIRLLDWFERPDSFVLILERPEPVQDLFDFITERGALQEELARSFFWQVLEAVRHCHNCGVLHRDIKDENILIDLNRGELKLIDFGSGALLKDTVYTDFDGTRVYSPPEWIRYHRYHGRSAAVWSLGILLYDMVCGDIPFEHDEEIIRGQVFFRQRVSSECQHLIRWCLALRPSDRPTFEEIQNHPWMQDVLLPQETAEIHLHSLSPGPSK
Assay [3] concerns Pim-2 stably transfected U2OS human osteogenic sarcoma line. As to the kind of experiment: Pim cell assay U2OS (phospho-BAD normalized against total BAD), Pim-2 transfected. It counts as cell-based. The settings on record: Homo sapiens, read-out: U2OS Pim2_Cell_IC50.
Assay [4] has as its target full length recombinant Pim-2 (Homo sapiens (Human), UniProt Q9P1W9). Briefly: Pim enzyme assay (HTRF, phosphorylation of biotinylated-BAD (S112) peptide), Pim-2. It counts as biochemical. As to conditions: Pim-2 enzyme assay; read-out: Pim2_IC50.
For assay [5], the target named is full length recombinant Pim-3 (Homo sapiens (Human), UniProt Q86V86). As to the kind of experiment: Pim enzyme assay (HTRF, phosphorylation of biotinylated-BAD (S112) peptide), Pim-3. It counts as biochemical. As to conditions: Pim-3 enzyme assay; read-out: Pim3 IC50. The method in brief: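 IC50 values were fitted with a 4-parameter logistic model to percent-of-control HTRF signal (Eu anti-phospho-BAD S112 antibody/streptavidin-APC). Reactions used full-length Pim-3 and biotin-BAD (S112) peptide, ran 1 h 30 min at RT (22 °C) in Hepes pH 7.0 buffer with BSA and DTT, and were stopped by 3 mM EDTA.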

Setting [6] is: read-out: U2OS Pim1_Cell_IC50, U2OS cells, Pim-1 transfected.
Where [7] appears, read: Pim-1 enzyme assay, read-out: Pim_1_IC50.

The structures appear in SMILES notation. Like-named read-outs stand apart in the source and are kept apart here.

Sequence of full length recombinant Pim-2 (Q9P1W9 whole entry): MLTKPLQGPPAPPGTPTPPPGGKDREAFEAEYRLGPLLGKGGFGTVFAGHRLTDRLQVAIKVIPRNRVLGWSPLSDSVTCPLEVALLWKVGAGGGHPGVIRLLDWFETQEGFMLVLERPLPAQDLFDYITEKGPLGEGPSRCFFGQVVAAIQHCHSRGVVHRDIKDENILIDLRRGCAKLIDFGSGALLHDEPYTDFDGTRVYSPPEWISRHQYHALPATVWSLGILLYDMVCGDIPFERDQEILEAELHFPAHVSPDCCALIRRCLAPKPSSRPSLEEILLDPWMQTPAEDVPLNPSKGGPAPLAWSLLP

As for `CNc1nnc(-c2ccc3[nH]cc(-c4nccc(N5CCC[C@H](N)C5)n4)c3c2)s1` [Example 128, (3S)-1-(2-(5-(5-(methylamino)-1,3,4-thiadiazol-2-yl)-1H-indol-3-yl)-4-pyrimidinyl)-3-piperidinamine], the IC50 came out at 13800 nM in assay [1] (setting [6]); 2.91 nM in assay [2] (setting [7]); 15900 nM in assay [3] (U2OS cells, Pim-2 transfected); 1.53 nM in assay [4]; 0.734 nM in assay [5].

On to `c1cc2[nH]cc(-c3cncc(C4CC4)n3)c2cc1-c1nnc(N2CCNCC2)o1` [Example 246, 3-(6-cyclopropyl-2-pyrazinyl)-5-(5-(1-piperazinyl)-1,3,4-oxadiazol-2-yl)-1H-indole], for which the IC50 in assay [1] (read-out: U2OS Pim1_Cell_IC50) is 450 nM; in assay [2] (setting [7]), 4.19 nM; in assay [3] (U2OS cells, Pim-2 transfected), more than 31600 nM; in assay [4] it was 21.5 nM; in assay [5] it was 7.11 nM.

With `CC(C)Oc1ccc(F)c(-c2c[nH]c3ccc(-c4nnc(N)o4)nc23)c1` [Example 125, 5-(3-(2-fluoro-5-(1-methylethoxy)phenyl)-1H-pyrrolo[3,2-b]pyridin-5-yl)-1,3,4-oxadiazol-2-amine], the IC50 in assay [1] (setting [6]) was 109 nM; in assay [2] (setting [7]), 22.8 nM; in assay [3] (U2OS cells, Pim-2 transfected) it was 4430 nM; in assay [4] it was 57 nM; in assay [5], 7.68 nM.

Take `Nc1nnc(-c2ccc3[nH]cc(-c4nccc(Oc5ccccc5)n4)c3c2)o1` [Example 106, 5-(3-(4-phenoxy-2-pyrimidinyl)-1H-indol-5-yl)-1,3,4-oxadiazol-2-amine]: the IC50 in assay [1] (read-out: U2OS Pim1_Cell_IC50) is 155 nM; in assay [2] (setting [7]) it was 15.2 nM; in assay [3] (U2OS cells, Pim-2 transfected), 1190 nM; in assay [4], 6.39 nM; in assay [5], 5.69 nM.

On to `COc1cc(-c2c[nH]c3ccc(-c4nnc(N)s4)cc23)nc(OC)n1` [Example 202, 5-(3-(2,6-dimethoxy-4-pyrimidinyl)-1H-indol-5-yl)-1,3,4-thiadiazol-2-amine], for which the IC50 in assay [1] (read-out: U2OS Pim1_Cell_IC50) was 238 nM; in assay [2], 73.2 nM; in assay [3] (U2OS), more than 31600 nM; in assay [4], 87.5 nM; in assay [5] it was 11.1 nM.

For `CC(C)Oc1cccc(-c2c[nH]c3ccc(-c4nnc(N)o4)cc23)n1` [Example 87, 5-(3-(6-(1-methylethoxy)-2-pyridinyl)-1H-indol-5-yl)-1,3,4-oxadiazol-2-amine], the IC50 is 45.1 nM in assay [1] (read-out: U2OS Pim1_Cell_IC50); 4.15 nM in assay [2] (setting [7]); 823 nM in assay [3] (U2OS cells, Pim-2 transfected); 5.46 nM in assay [4]; 1.11 nM in assay [5].

For the compound `Nc1nnc(-c2ccc3[nH]cc(-c4cncc(N5CCOCC5)n4)c3c2)s1` [Example 156, 5-(3-(6-(4-morpholinyl)-2-pyrazinyl)-1H-indol-5-yl)-1,3,4-thiadiazol-2-amine], the IC50 in assay [1] (setting [6]) was found to be 163 nM; in assay [2] (setting [7]), 5.59 nM; in assay [3] (U2OS cells, Pim-2 transfected) it was 1900 nM; in assay [4], 12.3 nM; in assay [5], 4.38 nM.

Take `CC1CCCN1c1ccnc(-c2c[nH]c3ccc(-c4nnc(N)o4)cc23)n1` (centres unmarked) [Example 97, 5-(3-(4-(2-methyl-1-pyrrolidinyl)-2-pyrimidinyl)-1H-indol-5-yl)-1,3,4-oxadiazol-2-amine]: the IC50 in assay [1] (read-out: U2OS Pim1_Cell_IC50) was 100 nM; in assay [2] (setting [7]) it was 6.42 nM; in assay [3] (U2OS cells, Pim-2 transfected) it was 315 nM; in assay [4] it was 1.7 nM; in assay [5], 1.22 nM.

Turning to `COc1ccc(-c2c[nH]c3ccc(-c4nnc(N)s4)cc23)nc1OC` [Example 168, 5-(3-(5,6-dimethoxy-2-pyridinyl)-1H-indol-5-yl)-1,3,4-thiadiazol-2-amine], the IC50 is 111 nM in assay [1] (read-out: U2OS Pim1_Cell_IC50); 23.2 nM in assay [2] (setting [7]); more than 3160 nM in assay [3] (U2OS cells, Pim-2 transfected); 44.1 nM in assay [4]; 6.34 nM in assay [5].

For the compound `CC1CCCCN1c1ccnc(-c2c[nH]c3ccc(-c4nnc(N)o4)cc23)n1` (centres unmarked) [Example 3, 5-(3-(4-(2-methylpiperidin-1-yl)pyrimidin-2-yl)-1H-indol-5-yl)-1,3,4-oxadiazol-2-amine], the IC50 turned out to be 54.6 nM in assay [1] (read-out: U2OS Pim1_Cell_IC50); 5.95 nM in assay [2] (setting [7]); 235 nM in assay [3] (U2OS cells, Pim-2 transfected); 2.19 nM in assay [4]; 0.974 nM in assay [5].
